Data set [1] concerns MDA-MB-468 breast cancer cells. Kind of data set: PRL-induced invasion of breast cancer cells, Boyden chambers. Format: cell-based. Particulars: 1 μM. The protocol:
(§1) FIG. 1A. Bar graph showing inhibition of PRL-induced invasion of breast cancer cells by SMI-1 and SMI-6; FIG. 1B. Bar graph showing only minimal cytotoxicity at indicated concentrations.
(§2) Both SMI-1 and SMI-6 at 1 μM concentrations abrogated PRL-induced invasion of MDA-MB-468 breast cancer cells, using Boyden chambers (FIG. 1A).

The next data set relates to Jurkat human lymphocytes. Briefly: Autocrine PRL-dependent BrdU uptake (cell proliferation) by flow cytometry. Type of data set: cell-based. The following applies: for cell proliferation (BrdU uptake) driven by autocrine PRL: 1 μM SMI 24 hrs in 2% charcoal-stripped serum, then 1 nM PRL 24 hrs. The protocol: FIG. 2. Bar graph showing suppression of autocrine PRL-dependent BrdU uptake in Jurkat lymphocytes by […] of each SMI, as determined by flow cytometry; the top panel indicates percent of live cells.
To examine whether the SMIs can suppress cell proliferation that is driven by autocrine PRL, Jurkat human lymphocytes were utilized, which produce large amounts of autocrine PRL. Autocrine PRL in lymphocytes is well known to promote cell proliferation. The cells were incubated for 24 hrs in 2% charcoal-stripped serum (which is devoid on exogenous lactogenic hormones) with 1 μM of SMI-1 or SMI-6, and then with 1 nM PRL for 24 hrs. BrdU uptake was analyzed by flow cytometry.

For data set [2], the system named is MDA-MB-468 breast cancer cells. Briefly: LDH cytotoxicity assay. The following applies: especially at 10-fold higher doses. Format: cell-based. The protocol: as §1, §2
The test system of data set [3] is postoperative mechanical pain. Briefly: Mechanical allodynia (anesthesiometer, withdrawal threshold) after hind paw surgery. The following applies: female mice, one day after surgery; 5 μg peripherally, 5 μg or 25 μg spinally. Format: in vivo. How it is done: FIG. 4. […] BL—baseline: POP—postoperative pain; SMI-6 was applied either peripherally ([…]), or spinally ([…]); each value is a mean±SME of 6 mice/treatment. Female mice were operated on the right hind paw. One day after surgery, 5 μg SMI-6 was applied either peripherally or centrally/spinally (5 μg or 25 μg) and mice were subjected to thermal nociception or mechanical allodynia (increased sensitization to tactile stimuli). […] SMI-6 at the 25 μg dose was effective in alleviating thermal pain by as much as 75%. For evaluating allodynia, an anesthesiometer was used, which applied a constant ramp of increasing mechanical pressure to the injured paw. […] was measured in grams.

The subject of data set [4] is postoperative thermal pain. Briefly: Thermal nociception (heat hyperalgesia, paw withdrawal latency) after hind paw surgery. Format: in vivo. Particulars: female mice. The protocol:
FIG. 3. […] Female mice were operated on the right hind paw. One day after surgery, 5 μg SMI-6 was applied either peripherally or centrally/spinally (5 μg or 25 μg) and mice were subjected to thermal nociception or mechanical allodynia (increased sensitization to tactile stimuli). […] SMI-6 at the 25 μg dose was effective in alleviating thermal pain by as much as 75%.

Bounds are passed on as bounds.

Consider `Cn1nc(Nc2ccc(Cl)cc2O)c(N)nc1=O` [SMI-1], for which the “PRL-induced invasion of MDA-MB-468 breast cancer cells” value in data set [1] was “abrogated”. In addition, in the data set with Jurkat human lymphocytes, the “cell proliferation (BrdU uptake) driven by autocrine PRL” value is given as “completely blocked”. Further, the “toxicity in LDH cytotoxicity assay” value in data set [2] is “minimal toxicity”.

As for `CCN(CC)c1ccc(/C=N/NC(=O)c2c(Cl)cnn2C)c(O)c1` [SMI-6], the “PRL-induced invasion of MDA-MB-468 breast cancer cells” value in data set [1] is given as “abrogated”. The “cell proliferation (BrdU uptake) driven by autocrine PRL” value in the data set on Jurkat human lymphocytes is listed as “completely blocked”. Besides, the “abrogation of mechanical pain (allodynia, withdrawal threshold)” value in data set [3] is “equally as effective”. The “alleviation of thermal pain” value in data set [4] (25 μg dose) is listed as ≤ 75%. The “alleviation of thermal pain (leg withdrawal latency), dose dependence” value in data set [4] (one day after surgery, 5 μg peripherally, 5 μg or 25 μg spinally) is listed as “dose-dependent alleviation”. Moreover, in data set [2], the “toxicity in LDH cytotoxicity assay” value is recorded as “minimal toxicity”.

B1: PRL: 25 kDa hormone produced by the anterior pituitary (protein, UniProt P01236 29-227, looked up)
Prolactin: LPICPGGAARCQVTLRDLFDRAVVLSHYIHNLSSEMFSEFDKRYTHGRGFITKAINSCHTSSLATPEDKEQAQQMNQKDFLSLIVSILRSWNEPLYHLVTEVRGMQEAPEAILSKAVEIEEQTKRLLEGMELIVSQVHPETKENEIYPVWSGLPSLQMADEESRLSAYYNLLHCLRRDSHKIDNYLKLLKCRIIHNNNC
Consider B1, for which, in the data set with Jurkat human lymphocytes (1 nM PRL for 24 hrs), the “effect of added PRL on BrdU uptake” value is given as “no effect”.
